{"source": "paper PMC12304826", "about": "“Redirecting the Peptide Cleavage Causes Protease Inactivation” (Angewandte Chemie (International Ed. in English), 2025)", "data": [{"molecular_target": "T1, human cathepsin B (Homo sapiens, UniProt P07858)", "T1 construct": "purchased Calbiochem, Darmstadt, Germany", "test": "Cathepsin B reactivation experiment", "format": "biochemical", "details": "30 min incubation with 0.5 µM, spin-filter removal of inhibitor, 200 min", "experimental": "Figure S2. Reactivation experiment of human cathepsin B after incubation with the carbamate inhibitors 7 and 31. Cathepsin B (38 µg/mL) was incubated under assay conditions for 30 min with • DMSO, • 5 µM of compound 7, or • 0.5 µM of compound 31. After removal of assay buffer, DMSO and excessive inhibitor by spin-filter centrifugation, product formation was followed in the presence of Cbz-Arg-Arg-pNA as substrate for 200 min. A negative control (•) containing only substrate and no enzyme was used to measure spontaneous decay of the substrate.\n(also on this page, place not known: time (min) 0 60 120 180 absorption 0 0.2 0.4 0.6)\n(1 picture or pasted object on this page, not shown here)", "values": [{"smiles": "O=C(NC(CC1CCCCC1)C(=O)NC(Cc1ccccc1)C(=O)O)Oc1ccc(NC(=O)C(Cc2ccccc2)Cc2ccccc2)c(Cl)c1", "note": "(stereo not drawn) [Compound 31]", "reversibility of cathepsin B inhibition": "irreversible"}]}, {"molecular_target": "T2, human cathepsin K (Homo sapiens, UniProt P43235)", "T2 construct": "purchased Enzo Life Sciences, Lörrach, Germany", "T2 sequence (P43235 115-329)": "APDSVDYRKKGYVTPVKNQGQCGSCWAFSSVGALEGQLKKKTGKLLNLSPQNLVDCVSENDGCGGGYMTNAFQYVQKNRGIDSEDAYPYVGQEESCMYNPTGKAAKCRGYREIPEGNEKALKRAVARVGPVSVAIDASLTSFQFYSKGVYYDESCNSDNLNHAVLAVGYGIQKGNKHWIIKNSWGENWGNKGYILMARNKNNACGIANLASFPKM", "test": "Cathepsin K inhibition assay (Cbz-Leu-Arg-AMC)", "format": "biochemical", "details": "20 µM inhibitor, 60 min; read-out: Residual activity @ 20 µM (%) Cat K", "experimental": "(§1) 1. Enzyme Inhibition Assays and Kinetic Data of Inhibition of Cathepsins B, L, K and S General. Human cathepsins were assayed either fluorimetrically or spectrophotometrically as noted below. The 10 mM inhibitor solutions were prepared in DMSO. The final concentration of DMSO in all assays was 2%. Non-linear regressions were conducted with GraFit 5. Residual cathepsin activity at an inhibitor concentration of 20 µM was determined from duplicate measurements based on the product formation after 60 min. Concentration dependent measurements were performed in duplicate measurements with five different inhibitor concentrations when the residual cathepsin activity in the presence of 20 µM inhibitor was below 70% (cathepsin B) or below 50% (cathepsins cathepsins L, K, and S). Progress curves were monitored for 60 min. First-order rate constants, kobs, were determined by non-linear regression following the equation [P] = vi × (1 – exp(-kobs × t))/kobs + d, where [P] is the product concentration, vi is the initial product formation rate, kobs is the observed first-order rate constant, and d is the offset. Mean values of kobs were plotted versus corresponding inhibitor concentrations [I], and second-order rate constants of inactivation, kinac/Ki, were obtained by linear regression. The equation kobs/[I] = (kinac/Ki)/(1 + [S]/Km) was used, where [S] is the substrate concentration and Km is the Michaelis-Menten constant. Standard errors (SE) refer to the linear regression. […] Cathepsin K inhibition assay.[1] Human recombinant cathepsin K (Enzo Life Sciences, Lörrach, Germany) was assayed fluorimetrically on a Monaco Safas spectrofluorometer flx or a Fluostar OPTIMA plate reader (BMG Labtech, Ortenberg, Germany). The wavelength for excitation was 360 nm and for emission 440 nm. The reactions were followed at 25 °C. A human cathepsin K stock solution of 23 µg/mL in 50 mM sodium acetate pH 5.5, 50 mM NaCl, 0.5 mM EDTA, 5 mM DTT was diluted 1:100 with assay buffer (100 mM sodium citrate pH 5.0, 100 mM NaCl, 1 mM EDTA, 0.01% CHAPS) containing 5 mM DTT and incubated for 30 min at 37 °C. A 10 mM stock solution of the 7-amino-4-methyl-coumarin (AMC)-based fluorogenic substrate Cbz-Leu-Arg-AMC was prepared in DMSO. The final concentration of the substrate was 40 μM (= 13.3 Km). When using the spectrofluorometer, into a cuvette containing 960 μL assay buffer, inhibitor solution and DMSO in a total volume of 16 μL, and 4 μL of the substrate solution were added and mixed. The reaction was initiated by adding 20 µL of the cathepsin K solution. When using the plate reader, into a well containing 192 µL assay buffer, inhibitor solution and DMSO in a total volume of 3.2 µL and 0.8 µL of the substrate solution were added and mixed. The reaction was initiated by adding 4 µL of the cathepsin K solution.\n(§2) Cathepsin S inhibition assay.[2] […]\n(§3) DTT, 0.5% Triton X-100 and 30% glycerol was diluted 1:100 with a 50 mM sodium phosphate buffer pH 6.5, 50 mM NaCl, 2 mM EDTA, 0.01% Triton X-100 and 5 mM DTT and incubated for 60 min at 37 °C. A 10 mM stock solution of the fluorogenic substrate Cbz-Phe-Arg-AMC was prepared in DMSO.\n(§4) The assay was performed with a final substrate concentration of 40 µM (= 0.74 Km). When using the spectrofluorometer, into a cuvette containing 920 μL assay buffer, inhibitor solution and DMSO in a total volume of 16 μL, and 4 μL of the substrate solution were added and mixed. The reaction was initiated by adding 60 μL of the cathepsin S solution. When using the plate reader, into a well containing 188 µL assay buffer, inhibitor solution and DMSO in a total volume of 3.2 µL and 0.8 µL of the substrate solution were added and mixed. The reaction was initiated by adding […] of the cathepsin S solution.", "units": {"remaining activity at 20 µM": "%"}, "values": [{"smiles": "CC(C)CC(NC(=O)Oc1ccccc1)C(=O)NC(Cc1ccccc1)C(=O)O", "note": "(stereo not drawn) [Compound 1]", "remaining activity at 20 µM": 77}, {"smiles": "CC(C)C[C@H](NC(=O)Oc1ccc(Cl)cc1)C(=O)N[C@@H](Cc1ccccc1)C(=O)OC(C)(C)C", "note": "[Compound 2]", "remaining activity at 20 µM": 93}, {"smiles": "COC(=O)C(Cc1ccccc1)NC(=O)C(CC(C)C)NC(=O)Oc1ccc(Cl)cc1", "note": "(stereo not drawn) [Compound 3]", "remaining activity at 20 µM": "≥ 98"}, {"smiles": "CC(C)C[C@H](NC(=O)Oc1ccc(Cl)cc1)C(=O)N[C@@H](Cc1ccccc1)C(=O)O", "note": "[Compound 4]", "remaining activity at 20 µM": 92}, {"smiles": "CC(C)CC(CNC(=O)Oc1ccc(Cl)cc1)C(=O)N[C@H](Cc1ccccc1)C(=O)O", "note": "(stereo partly drawn) [Compound 5]", "remaining activity at 20 µM": 70}, {"smiles": "O=C(NC(CC1CCCCC1)C(=O)NC(Cc1ccccc1)C(=O)O)Oc1ccc(Cl)cc1", "note": "(stereo not drawn) [Compound 7]", "remaining activity at 20 µM": 60}, {"smiles": "CC(C)C[C@H](NC(=O)Oc1ccc(Cl)cc1)C(=O)N1CCC[C@H]1C(=O)O", "note": "[Compound 8]", "remaining activity at 20 µM": 91}, {"smiles": "CC(C)CC(CNC(=O)Oc1ccc(Cl)cc1)C(=O)N1CCC[C@@H]1C(=O)O", "note": "(stereo partly drawn) [Compound 9]", "remaining activity at 20 µM": 85}, {"smiles": "CC(C)C[C@H](NC(=O)Oc1ccc(Cl)cc1)C(=O)N1CCCC[C@H]1C(=O)O", "note": "[Compound 10]", "remaining activity at 20 µM": 93}, {"smiles": "CC(C)C[C@@H](C(=O)N1CCC[C@H]1C(=O)O)N(C)C(=O)Oc1ccc(Cl)cc1", "note": "[Compound 15]", "remaining activity at 20 µM": 91}, {"smiles": "CC(C)CC(OC(=O)Nc1ccc(Cl)cc1)C(=O)N1CCC[C@H]1C(=O)O", "note": "(stereo partly drawn) [Compound 17]", "remaining activity at 20 µM": 95}, {"smiles": "CC(C)C[C@H](NC(=O)Nc1ccc(Cl)cc1)C(=O)N[C@@H](Cc1ccccc1)C(=O)O", "note": "[Compound 18]", "remaining activity at 20 µM": 87}, {"smiles": "CC(C)C[C@H](NC(=O)Nc1ccc(Cl)cc1)C(=O)N1CCC[C@H]1C(=O)O", "note": "[Compound 19]", "remaining activity at 20 µM": 92}, {"smiles": "CC(C)C[C@H](NC(=O)Oc1ccc(Cl)c(NC(=O)Cc2ccccc2)c1)C(=O)N1CCC[C@H]1C(=O)O", "note": "[Compound 20]", "remaining activity at 20 µM": 82}, {"smiles": "CC(C)C[C@H](NC(=O)Oc1ccc(-c2ccccc2)c(NC(=O)Cc2ccccc2)c1)C(=O)N1CCC[C@H]1C(=O)O", "note": "[Compound 21]", "remaining activity at 20 µM": 73}, {"smiles": "CC(C)CC(NC(=O)Oc1ccc(Cl)c(NC(=O)C(c2ccccc2)c2ccccc2)c1)C(=O)N1CCCC1C(=O)O", "note": "(stereo not drawn) [Compound 22]", "remaining activity at 20 µM": 87}, {"smiles": "CC(C)C[C@H](NC(=O)Oc1cccc(Cl)c1)C(=O)N1CCC[C@H]1C(=O)O", "note": "[Compound 23]", "remaining activity at 20 µM": 87}, {"smiles": "CC(C)C[C@H](NC(=O)Oc1ccc(NC(=O)Cc2ccccc2)c(Cl)c1)C(=O)N1CCC[C@H]1C(=O)O", "note": "[Compound 24]", "remaining activity at 20 µM": 95}, {"smiles": "CC(C)C[C@H](NC(=O)Oc1ccc(NC(=O)N(Cc2ccccc2)Cc2ccccc2)c(Br)c1)C(=O)N1CCC[C@H]1C(=O)O", "note": "[Compound 26]", "remaining activity at 20 µM": 83}, {"smiles": "CC(C)CC(NC(=O)Oc1ccc(NC(=O)C(c2ccccc2)c2ccccc2)c(Br)c1)C(=O)N1CCCC1C(=O)O", "note": "(stereo not drawn) [Compound 27]", "remaining activity at 20 µM": 90}, {"smiles": "CC(C)CC(NC(=O)Oc1ccc(NC(=O)C(c2ccccc2)c2ccccc2)c(Cl)c1)C(=O)N1CCCC1C(=O)O", "note": "(stereo not drawn) [Compound 28]", "remaining activity at 20 µM": 83}]}, {"molecular_target": "T2, human cathepsin K", "test": "Cathepsin K inhibition assay (Cbz-Leu-Arg-AMC)", "format": "biochemical", "details": "five inhibitor concentrations, 60 min progress curves", "experimental": "as §1, §2, §3, §4", "units": {"kinac/Ki ± SE Cat K": "M⁻¹ s⁻¹"}, "values": [{"smiles": "CC(C)CC(OC(=O)Nc1ccc(Cl)cc1)C(=O)N[C@@H](Cc1ccccc1)C(=O)O", "note": "(stereo partly drawn) [Compound 16]", "kinac/Ki ± SE Cat K": 185}, {"smiles": "O=C(NC(CC1CCCCC1)C(=O)NC(Cc1ccccc1)C(=O)O)Oc1ccc(NC(=O)C(c2ccccc2)c2ccccc2)c(Cl)c1", "note": "(stereo not drawn) [Compound 30]", "kinac/Ki ± SE Cat K": 3490}, {"smiles": "O=C(NC(CC1CCCCC1)C(=O)NC(Cc1ccccc1)C(=O)O)Oc1ccc(NC(=O)C(Cc2ccccc2)Cc2ccccc2)c(Cl)c1", "note": "(stereo not drawn) [Compound 31]", "kinac/Ki ± SE Cat K": 23.1}]}, {"molecular_target": "T2, human cathepsin K", "test": "Cathepsin K inhibition assay (Cbz-Leu-Arg-AMC)", "format": "biochemical", "details": "inhibitor not soluble at 20 µM; calculated for 20 µM from IC50 at two lower concentrations; read-out: Residual activity @ 20 µM (%) Cat K, approximated [e]", "experimental": "as §1, §2, §3, §4", "units": {"remaining activity at 20 µM": "%"}, "values": [{"smiles": "CC(C)CC(NC(=O)Oc1ccc(NC(=O)c2ccc(-c3ccccc3)cc2)c(Cl)c1)C(=O)N1CCCC1C(=O)O", "note": "(stereo not drawn) [Compound 25]", "remaining activity at 20 µM": 76}, {"smiles": "CC(C)CC(NC(=O)Oc1ccc(NC(=O)C(c2ccccc2)c2ccccc2)c(Cl)c1)C(=O)NC(Cc1ccccc1)C(=O)O", "note": "(stereo not drawn) [Compound 29]", "remaining activity at 20 µM": 8}]}]}
